Data taken from patent US20250171437A1 (Agios Pharmaceuticals,Inc., priority 2022, published 2025).

Molecular target: T1, human PAH with the R408W mutation (A375 R408W cells) (Homo sapiens, UniProt P00439, R408W)
T1 construct: expressed in transfected cells
T1 sequence (P00439 1-452 R408W): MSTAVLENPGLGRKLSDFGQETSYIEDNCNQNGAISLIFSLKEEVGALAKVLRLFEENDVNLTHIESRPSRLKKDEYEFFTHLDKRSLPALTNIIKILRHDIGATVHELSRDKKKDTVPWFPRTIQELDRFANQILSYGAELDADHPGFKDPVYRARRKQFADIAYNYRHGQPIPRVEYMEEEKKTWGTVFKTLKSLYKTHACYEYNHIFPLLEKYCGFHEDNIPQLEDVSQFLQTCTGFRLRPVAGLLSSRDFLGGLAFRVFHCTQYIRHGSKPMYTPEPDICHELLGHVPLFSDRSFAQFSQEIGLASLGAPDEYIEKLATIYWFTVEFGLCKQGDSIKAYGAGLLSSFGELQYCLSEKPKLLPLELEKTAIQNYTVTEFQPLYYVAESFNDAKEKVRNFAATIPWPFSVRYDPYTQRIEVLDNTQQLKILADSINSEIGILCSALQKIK
Assay: Cell Based Phenylalanine Flux Assay
Settings: A375 R408W cells; 24 hrs with compound, then 20 μM sepiapterin and 800 μM 13C9,15N-Phenylalanine for 4 hours; 13C-Tyrosine by LC-MS; average where tested multiple times
Outline: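 A375 cells stably expressing human PAH R408W treated 24 h at 37° C with a 10-point 2-fold dose curve in duplicate, 0.5% DMSO. Then 20 μM sepiapterin and 800 μM 13C9,15N-Phe added for 4 h; 13C-Tyr in media measured by LC-MS to give AC50.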

AC50 [nM] | Compound
500 to 1000 | O=C(c1nnc(-c2ccc(F)c(F)c2)o1)N1CCc2[nH]cnc2[C@H]1c1nc2cc(F)ccc2o1 [Example 75, (S)-(5-(3,4-difluorophenyl)-1,3,4-oxadiazol-2-yl)(4-(5-fluorobenzo[d]oxazol-2-yl)-6,7-dihydro-1H-imidazo[4,5-c]pyridin-5(4H)-yl)methanone]
1000 to 5000 | O=C(c1nnc(-c2ccc(F)c(F)c2)o1)N1CCc2[nH]cnc2[C@@H]1c1nc2cc(F)ccc2o1 [Example 76, (R)-(5-(3,4-difluorophenyl)-1,3,4-oxadiazol-2-yl)(4-(5-fluorobenzo[d]oxazol-2-yl)-6,7-dihydro-1H-imidazo[4,5-c]pyridin-5(4H)-yl)methanone]
500 to 1000 | Cc1cc(F)ccc1-c1nnc(C(=O)N2CCc3[nH]cnc3[C@H]2c2nc3cc(F)ccc3o2)o1 [Example 77, (S)-(5-(4-fluoro-2-methylphenyl)-1,3,4-oxadiazol-2-yl)(4-(5-fluorobenzo[d]oxazol-2-yl)-6,7-dihydro-1H-imidazo[4,5-c]pyridin-5(4H)-yl)methanone]
1000 to 5000 | Cc1cc(F)ccc1-c1nnc(C(=O)N2CCc3[nH]cnc3[C@@H]2c2nc3cc(F)ccc3o2)o1 [Example 78, (R)-(5-(4-fluoro-2-methylphenyl)-1,3,4-oxadiazol-2-yl)(4-(5-fluorobenzo[d]oxazol-2-yl)-6,7-dihydro-1H-imidazo[4,5-c]pyridin-5(4H)-yl)methanone]
500 to 1000 | CN(C)CCc1cn2ncc(C(=O)N3CCc4[nH]cnc4[C@H]3c3nc4cc(F)ccc4o3)c2cc1Cl [Example 79, (S)-(5-chloro-6-(2-(dimethylamino)ethyl)pyrazolo[1,5-a]pyridin-3-yl)(4-(5-fluorobenzo[d]oxazol-2-yl)-6,7-dihydro-1H-imidazo[4,5-c]pyridin-5(4H)-yl)methanone]
1000 to 5000 | CN(C)CCc1cn2ncc(C(=O)N3CCc4[nH]cnc4[C@@H]3c3nc4cc(F)ccc4o3)c2cc1Cl [Example 80, (R)-(5-chloro-6-(2-(dimethylamino)ethyl)pyrazolo[1,5-a]pyridin-3-yl)(4-(5-fluorobenzo[d]oxazol-2-yl)-6,7-dihydro-1H-imidazo[4,5-c]pyridin-5(4H)-yl)methanone]
500 to 1000 | O=C(c1cnn2cc(-c3ccccn3)ccc12)N1CCc2[nH]cnc2[C@H]1c1nc2cc(F)ccc2o1 [Example 81, (S)-(4-(5-fluorobenzo[d]oxazol-2-yl)-6,7-dihydro-1H-imidazo[4,5-c]pyridin-5(4H)-yl)(6-(pyridin-2-yl)pyrazolo[1,5-a]pyridin-3-yl)methanone]
≥ 5000 | O=C(c1cnn2cc(-c3ccccn3)ccc12)N1CCc2[nH]cnc2[C@@H]1c1nc2cc(F)ccc2o1 [Example 82, (R)-(4-(5-fluorobenzo[d]oxazol-2-yl)-6,7-dihydro-1H-imidazo[4,5-c]pyridin-5(4H)-yl)(6-(pyridin-2-yl)pyrazolo[1,5-a]pyridin-3-yl)methanone]
1000 to 5000 | O=C(c1nnc(-c2ccc(F)cc2F)o1)N1CCc2[nH]cnc2[C@@H]1c1nc2cc(F)ccc2o1 [Example 83, (R)-(5-(2,4-difluorophenyl)-1,3,4-oxadiazol-2-yl)(4-(5-fluorobenzo[d]oxazol-2-yl)-6,7-dihydro-1H-imidazo[4,5-c]pyridin-5(4H)-yl)methanone]
≤ 500 | O=C(c1nnc(-c2ccc(F)cc2F)o1)N1CCc2[nH]cnc2[C@H]1c1nc2cc(F)ccc2o1 [Example 84, (S)-(5-(2,4-difluorophenyl)-1,3,4-oxadiazol-2-yl)(4-(5-fluorobenzo[d]oxazol-2-yl)-6,7-dihydro-1H-imidazo[4,5-c]pyridin-5(4H)-yl)methanone]
≤ 500 | O=C(c1oc(-c2ccccn2)nc1C(F)F)N1CCc2[nH]cnc2[C@H]1c1nc2cc(F)ccc2o1 [Example 85, (S)-(4-(difluoromethyl)-2-(pyridin-2-yl)oxazol-5-yl)(4-(5-fluorobenzo[d]oxazol-2-yl)-6,7-dihydro-1H-imidazo[4,5-c]pyridin-5(4H)-yl)methanone]
1000 to 5000 | O=C(c1oc(-c2ccccn2)nc1C(F)F)N1CCc2[nH]cnc2[C@@H]1c1nc2cc(F)ccc2o1 [Example 86, (R)-(4-(difluoromethyl)-2-(pyridin-2-yl)oxazol-5-yl)(4-(5-fluorobenzo[d]oxazol-2-yl)-6,7-dihydro-1H-imidazo[4,5-c]pyridin-5(4H)-yl)methanone]
1000 to 5000 | Cn1cc(-c2nc(C(F)F)c(C(=O)N3CCc4[nH]cnc4[C@@H]3c3nc4cc(F)ccc4o3)o2)cn1 [Example 87, (R)-(4-(difluoromethyl)-2-(1-methyl-1H-pyrazol-4-yl)oxazol-5-yl)(4-(5-fluorobenzo[d]oxazol-2-yl)-6,7-dihydro-1H-imidazo[4,5-c]pyridin-5(4H)-yl)methanone]
500 to 1000 | Cn1cc(-c2nc(C(F)F)c(C(=O)N3CCc4[nH]cnc4[C@H]3c3nc4cc(F)ccc4o3)o2)cn1 [Example 88, (S)-(4-(difluoromethyl)-2-(1-methyl-1H-pyrazol-4-yl)oxazol-5-yl)(4-(5-fluorobenzo[d]oxazol-2-yl)-6,7-dihydro-1H-imidazo[4,5-c]pyridin-5(4H)-yl)methanone]
1000 to 5000 | O=C(c1nnc(-c2ccc(C(F)(F)F)cc2)o1)N1CCc2[nH]cnc2[C@@H]1c1nc2cc(F)ccc2o1 [Example 89, (R)-(4-(5-fluorobenzo[d]oxazol-2-yl)-6,7-dihydro-1H-imidazo[4,5-c]pyridin-5(4H)-yl)(5-(4-(trifluoromethyl)phenyl)-1,3,4-oxadiazol-2-yl)methanone]
500 to 1000 | O=C(c1nnc(-c2ccc(C(F)(F)F)cc2)o1)N1CCc2[nH]cnc2[C@H]1c1nc2cc(F)ccc2o1 [Example 90, (S)-(4-(5-fluorobenzo[d]oxazol-2-yl)-6,7-dihydro-1H-imidazo[4,5-c]pyridin-5(4H)-yl)(5-(4-(trifluoromethyl)phenyl)-1,3,4-oxadiazol-2-yl)methanone]
500 to 1000 | CN(C)c1ccc2c(C(=O)N3CCc4[nH]cnc4[C@H]3c3nc4cc(F)ccc4o3)cnn2c1 [Example 91, (S)-(6-(dimethylamino)pyrazolo[1,5-a]pyridin-3-yl)(4-(5-fluorobenzo[d]oxazol-2-yl)-6,7-dihydro-1H-imidazo[4,5-c]pyridin-5(4H)-yl)methanone]
≥ 5000 | CN(C)c1ccc2c(C(=O)N3CCc4[nH]cnc4[C@@H]3c3nc4cc(F)ccc4o3)cnn2c1 [Example 92, (R)-(6-(dimethylamino)pyrazolo[1,5-a]pyridin-3-yl)(4-(5-fluorobenzo[d]oxazol-2-yl)-6,7-dihydro-1H-imidazo[4,5-c]pyridin-5(4H)-yl)methanone]
500 to 1000 | O=C(c1ccnn1C(F)F)N1CCc2[nH]cnc2[C@H]1c1nc2cc(F)ccc2o1 [Example 93, (S)-(1-(difluoromethyl)-1H-pyrazol-5-yl)(4-(5-fluorobenzo[d]oxazol-2-yl)-6,7-dihydro-1H-imidazo[4,5-c]pyridin-5(4H)-yl)methanone]
1000 to 5000 | O=C(c1ccnn1C(F)F)N1CCc2[nH]cnc2[C@@H]1c1nc2cc(F)ccc2o1 [Example 94, (R)-(1-(difluoromethyl)-1H-pyrazol-5-yl)(4-(5-fluorobenzo[d]oxazol-2-yl)-6,7-dihydro-1H-imidazo[4,5-c]pyridin-5(4H)-yl)methanone]
500 to 1000 | Cn1cc(C(=O)N2CCc3[nH]cnc3[C@H]2c2nc3cc(F)ccc3o2)c(C(F)F)n1 [Example 95, (S)-(3-(difluoromethyl)-1-methyl-1H-pyrazol-4-yl)(4-(5-fluorobenzo[d]oxazol-2-yl)-6,7-dihydro-1H-imidazo[4,5-c]pyridin-5(4H)-yl)methanone]
1000 to 5000 | Cn1cc(C(=O)N2CCc3[nH]cnc3[C@@H]2c2nc3cc(F)ccc3o2)c(C(F)F)n1 [Example 96, (R)-(3-(difluoromethyl)-1-methyl-1H-pyrazol-4-yl)(4-(5-fluorobenzo[d]oxazol-2-yl)-6,7-dihydro-1H-imidazo[4,5-c]pyridin-5(4H)-yl)methanone]
≤ 500 | Cc1ccc2oc([C@@H]3c4nc[nH]c4CCN3C(=O)c3nnc(-c4ccccn4)o3)nc2c1 [Example 97, (S)-(4-(5-methylbenzo[d]oxazol-2-yl)-6,7-dihydro-1H-imidazo[4,5-c]pyridin-5(4H)-yl)(5-(pyridin-2-yl)-1,3,4-oxadiazol-2-yl)methanone]
1000 to 5000 | Cc1ccc2oc([C@H]3c4nc[nH]c4CCN3C(=O)c3nnc(-c4ccccn4)o3)nc2c1 [Example 98, (R)-(4-(5-methylbenzo[d]oxazol-2-yl)-6,7-dihydro-1H-imidazo[4,5-c]pyridin-5(4H)-yl)(5-(pyridin-2-yl)-1,3,4-oxadiazol-2-yl)methanone]
500 to 1000 | Cc1ccc2oc([C@@H]3c4nc[nH]c4CCN3C(=O)c3nnc(-c4ccc(F)cn4)o3)nc2c1 [Example 99, (S)-(5-(5-fluoropyridin-2-yl)-1,3,4-oxadiazol-2-yl)(4-(5-methylbenzo[d]oxazol-2-yl)-6,7-dihydro-1H-imidazo[4,5-c]pyridin-5(4H)-yl)methanone]
1000 to 5000 | Cc1ccc2oc([C@H]3c4nc[nH]c4CCN3C(=O)c3nnc(-c4ccc(F)cn4)o3)nc2c1 [Example 100, (R)-(5-(5-fluoropyridin-2-yl)-1,3,4-oxadiazol-2-yl)(4-(5-methylbenzo[d]oxazol-2-yl)-6,7-dihydro-1H-imidazo[4,5-c]pyridin-5(4H)-yl)methanone]
